Assay [1] has as its system A-375 malignant melanoma cells. As to the kind of experiment: In vitro antitumor activity, A-375 melanoma. The class given is cell-based, human. As to conditions: Homo sapiens, read-out: IC50. The source says: 1) in vitro tumor cell viability assays using MTT and SRB dye reaction endpoints.
Sulforhodamine B (SRB) Assay for Adherent Tumor Cells
Sulforhodamine B (SRB) is a protein binding aminoxanthene dye with two sulfonic acid groups. (Lillie, R. D., H. J. Conn's Biological Stains, 9th Ed., Baltimore; Williams & Wilkins, 1977.) It quantitates whole cell protein content by the intensity of dye staining and relates this to the number of viable cells. […] The SRB assay is used for cells which normally adhere to surfaces (in this case plastic culture flasks or petri dishes) as part of their requirement for growth and division in vitro. The SRB assay is currently used by the National Cancer Institute in the anticancer drug screening program. (Skehan, et al., J Natl Cancer Inst 82:1107-1112, 1990; Rubinstein, et al., J Natl Cancer Inst 82:1113-1118, 1990.) Methodologic comparisons have shown that SRB results are linear for the number of tumor cells over a 100-fold range, and for protein content determined by a modified Lowry method or Standard Bradford (Bradford, M., Anal Biochem 72:248-254, 1976) methods. […] (Lillie, R. D., H. J. Conn's Biological Stains, 9th Ed., Baltimore; Williams & Wilkins, 1977.)
Cell cultures of 10^3 -10^7 cells growing in 96-well plastic microtiter plates are fixed with 50% trichloroacetic acid (TCA) for 30 minutes at 4° C. The cells are then stained with 0.4% (w/v) sulforhodamine B (SRB) dissolved in 1% acetic acid. Unbound dye is removed by 4 washes with 1% acetic acid, and protein-bound dye is extracted with 10 mM unbuffered Tris® base [tris(hydroxymethyl)aminomethane]. The optical density (OD) of this extracted solution is measured at […] in a microtiter plate ultraviolet absorbance detector. Cell viability is expressed as percent of control by dividing the optical densities and multiplying the result by 100.
(§1) Microculture Tetrazolium (MTT) Assay for Tumor Cells
(§2) Tumors are disaggregated into single cell suspensions using mechanical, hypoosmotic, and/or enzymatic (trypsin) methods. The cells are plated at a concentration of 3-5×10^4 per […] well into plastic 96-well plates. Growth medium containing 5-10% (vol/vol) heat-inactivated fetal bovine serum and penicillin/streptomycin (both […]) are added prior to incubation at 37° C. for 6 days. Afterwards the medium containing the drug is removed, the cells are centrifuged in fresh medium or phosphate-buffered saline (pH 7.4). A tetrazolium dye, […]-2,5-diphenyl tetrazolium (MTT), is then added. (Mossman, T., J Immunol 65:55-63, 1983.) This dye forms a colored formazan product upon activation by mitochondrial reductases in viable cells. Typically, the formazan product is solubilized in acid-propanol or DMSO. The intensity of the color is proportional to viable cell numbers and this is quantitated by spectrophotometric absorbance at 570 nm on a micro ELISA plate reader. The results are calibrated in % control absorbance from untreated tumor cells. (Alley, et al., Cancer Res 48:589-601, 1988.)
Table 3 gives the potencies of the new aziridine-1-carboxamides in a panel of human and murine tumor cells in culture. The tumor cell lines in this table are selected to represent a range of histological and growth phenotypes. Their characteristics are described below.
4.0 The Human A-375 Malignant Melanoma Cell Line was also developed by Girard, et al. (Girard, et al., J Natl Cancer Inst 51(5):1417-1423, 1973) from a human with advanced melanoma. The modal chromosome number is 67 and it has a low plating (colony forming) efficiency of 0.7% when grown on agar. These cells also form rapidly growing tumors when injected subcutaneously into immunodeficient athymic (nu/nu) mice. (Girard, et al., J Natl Cancer Inst 51(5):1417-1423, 1973.) These cells are also used in the NCI drug screening panel. (Skehan, et al., J Natl Cancer Inst 82:1107-1112, 1990.)

The next assay concerns 8226/I-R myeloma cells. As to the kind of experiment: MTT growth inhibition, imexon-resistant 8226 myeloma cells. The following applies: for Cross-resistance with imexon: 8226 imexon-resistant vs parental; for IC50: Homo sapiens, imexon-resistant 8226, read-out: IC50; for IC50 / Fold Resistance of IC50 R/IC50 's: Table 5; for Fold Resistance of IC50 R/IC50 's: imexon-resistant vs sensitive 8226. The class given is cell-based, human. On the procedure: as §1, §2
(§3) The following unpublished studies were performed in vitro to develop and characterize a human myeloma cell line with resistance to imexon-induced cytotoxicity. The original (parental) 8226 cell line was developed by Matsuoka, et al. (Matsuoka, et al., Proc Soc Exp Biol Med 125:1246-1250, 1967). It is a lymphoblastoid cell line which stains for lambda light immunoglobulin production. It grows in vitro in suspension culture (non-adherent) and forms tumors when injected into SCID mice. (Skehan, et al., J Natl Cancer Inst 82:1107-1112, 1990.)
(§4) One exciting feature of our novel compounds is, that they work on imexon-resistant cells. An imexon-resistant 8226 myeloma cell line was selected by continuously exposing cells to gradually increasing concentrations of imexon up to 3.25 mg/mL. This cell line has slightly longer cell doubling time than 8226 sensitive cells (24 vs 20 hours). […] The dose response curve for imexon continuous exposure was determined using MTT assay. Each data point represents the mean of three experiments performed in 8 replicates.
(§5) We compared IC50 concentrations and there is a 4-fold resistance observed for the 8226/I-R cell line when the cells were continuously exposed to imexon for […] at 37° C. The degree of resistance was relatively unstable in the absence of the drug, with the resistant cells losing substantial resistance when maintained in imexon-free medium for 20 weeks (FIG. 2).
(§6) IC50 was measured by MTT assay. IC50 refer to the concentration by drug that results in 50% growth inhibition. A minimum of 2 assays were performed for each drug following 250 mg/mL imexon is equivalent to 6.5 cGy radiation in sensitive cells.
(§7) Using the colorimetric microculture tetrazolium (MTT) assay, imexon and 25-related analogs were studied for tumor growth inhibition in vitro. Imexon-induced DNA single strand breaks were assessed by alkaline elution. Cells were exposed to imexon for 1 hour prior to start of experiment. The fraction of ^14 C-labeled DNA retained on the filter is plotted against the time of elution. The cells included parental 8226 myeloma cells and the 8226 imexon-resistant cells exposed to drug (imexon or analog) continuously for 10 days at 37° C. At the end of the exposure period, the cells were analyzed for viability using the formazan-forming tetrazolium dye (MTT) assay.

Another assay has as its system 8226/S myeloma cells. As to the kind of experiment: MTT growth inhibition, parental 8226 myeloma cells. The class given is cell-based, human. As to conditions: for IC50: Homo sapiens, Table 5, Sensitive (parental) 8226, read-out: IC50; for Potency relative to imexon: myeloma cells. On the procedure:
as §1, §2, §3, §4, §5, §6, §7

The test system of assay [2] is L-1210 MDR leukemia cells. As to the kind of experiment: MTT growth inhibition, multidrug-resistant L-1210 leukemia cells. The class given is cell-based, mouse. The following applies: for Fold Resistance of IC50 's (MDR/S): L-1210 MDR vs sensitive, 11520 min; for IC50: Mus musculus, L1210, 192 h, MDR L-1210, drug continuously present 8 days, read-out: IC50. On the procedure:
as §2
In addition, the imexon analogs have also been tested in a multidrug-resistant (MDR) mouse L-1210 leukemia cell line.
L-1210 MDR Cells represent a multidrug-resistant cell line developed for resistance to the alkylating agent mitomycin C. (Dorr, et al., Biochem Pharmacol 36(19):3115-3120, 1987.) This cell line has the same general growth characteristics of the parental line, but is cross-resistant to numerous natural-product based anticancer agents. This includes anthracyclines such as doxorubicin (Adriamycin®) and vinca alkaloids such as vincristine or vinblastine.
*Drug continuously present for 8 days; IC50 measured by MTT dye

The results in this text go back to patent publication US6297230A, “Cyanoaziridines for treating cancer” (priority 2000, dated 2001).

Converted amounts (≈) assume the structure as drawn. “Also recorded” adds a separate entry of the source.

With `N#CC1CN1C(=O)Nc1ccc([N+](=O)[O-])cc1` (stereo not shown) [AMP 417, 2-Cyanoaziridine-1-[N-(4-nitrophenyl)]carboxamide], the IC50 in assay [1] turned out to be 0.9 µg/mL (≈ 3.88 µM). For the same molecule, in the assay with 8226/I-R myeloma cells, the “Cross-resistance with imexon” value is “lack of significant (>50% IC50 change) cross-resistance with imexon; also recorded: no significant cross resistance”, the IC50 was 2 µg/mL (≈ 8.61 µM) and the “Fold Resistance of IC50 R/IC50 's” value came to 0.95. In the assay on 8226/S myeloma cells, the IC50 was found to be 2.1 µg/mL (≈ 9.04 µM) and the “Potency relative to imexon” value is on record as “roughly equal potency to imexon”. In addition, in assay [2], the “Fold Resistance of IC50 's (MDR/S)” value came out at 1.0 and the IC50 came to 0.6 µg/mL (≈ 2.58 µM).
In the case of `N#CC1CN1C(=O)Nc1ccccc1` (stereo not shown) [AMP 404, 2-Cyanoaziridine-1-(N-phenyl)carboxamide], in assay [1], the IC50 is 2.1 µg/mL (≈ 11.2 µM). In the assay with 8226/I-R myeloma cells, the “Cross-resistance with imexon” value is listed as “lack of significant (>50% IC50 change) cross-resistance with imexon”, the IC50 worked out at 1.5 µg/mL (≈ 8.01 µM) and the “Fold Resistance of IC50 R/IC50 's” value turned out to be 1.5. Besides, in the assay on 8226/S myeloma cells, the IC50 came out at 1 µg/mL (≈ 5.34 µM). For the same molecule, in assay [2], the “Fold Resistance of IC50 's (MDR/S)” value is listed as 10.5 and the IC50 came out at 2.1 µg/mL (≈ 11.2 µM).
On to `CCNC(=O)N1CC1C#N` (stereo not shown) [AMP 406, 2-Cyanoaziridine-1-(N-ethyl)carboxamide], for which the half-maximal inhibitory concentration (IC50) in assay [1] worked out at 5 µg/mL (≈ 35.9 µM); in the assay with 8226/I-R myeloma cells, 3.6 µg/mL (≈ 25.9 µM); in the assay with 8226/S myeloma cells, 3.1 µg/mL (≈ 22.3 µM); in assay [2], 2 µg/mL (≈ 14.4 µM). In addition, the “Fold Resistance of IC50 R/IC50 's” value in the assay with 8226/I-R myeloma cells worked out at 1.2. The “Fold Resistance of IC50 's (MDR/S)” value in assay [2] stood at 1.0.
On to `N#CC1CN1C(=O)Nc1ccc(C(F)(F)F)cc1` (stereo not shown) [AMP 416, 2-Cyanoaziridine-1-[N-(4-trifluorophenyl)]carboxamide], for which the IC50 in assay [1] worked out at 3 µg/mL (≈ 11.8 µM). In addition, in the assay with 8226/I-R myeloma cells, the “Cross-resistance with imexon” value is given as “lack of significant (>50% IC50 change) cross-resistance with imexon; also recorded: no significant cross resistance”, the IC50 worked out at 2 µg/mL (≈ 7.84 µM) and the “Fold Resistance of IC50 R/IC50 's” value was 0.95. In addition, in the assay with 8226/S myeloma cells, the half-maximal inhibitory concentration (IC50) is 2.1 µg/mL (≈ 8.23 µM) and the “Potency relative to imexon” value is recorded as “roughly equal potency to imexon”. For the same molecule, in assay [2], the “Fold Resistance of IC50 's (MDR/S)” value turned out to be 0.9 and the IC50 stood at 1.8 µg/mL (≈ 7.05 µM).
As to `CCOC(=O)CNC(=O)N1CC1C#N` (stereo not shown) [AMP 420, 2-Cyanoaziridine-1-[N-(ethoxycarbonyl)methyl]carboxamide], the IC50 in assay [1] amounted to 10 µg/mL (≈ 50.7 µM); with 8226/I-R myeloma cells, 6 µg/mL (≈ 30.4 µM); in the assay on 8226/S myeloma cells, 5 µg/mL (≈ 25.4 µM); in assay [2] it was 2.5 µg/mL (≈ 12.7 µM). Also, the “Cross-resistance with imexon” value in the assay with 8226/I-R myeloma cells is on record as “lack of significant (>50% IC50 change) cross-resistance with imexon”. In the assay on 8226/I-R myeloma cells, the “Fold Resistance of IC50 R/IC50 's” value stood at 1.2. For the same molecule, in assay [2], the “Fold Resistance of IC50 's (MDR/S)” value stood at 1.0.
Regarding `N#CC1CN1C(=O)Nc1ccc(F)cc1` (stereo not shown) [AMP 415, 2-Cyanoaziridine-1-[N-(4-fluorophenyl)]carboxamide], in assay [1], the IC50 was determined as 0.7 µg/mL (≈ 3.41 µM). For the same molecule, in the assay with 8226/I-R myeloma cells, the “Cross-resistance with imexon” value is on record as “lack of significant (>50% IC50 change) cross-resistance with imexon; also recorded: no significant cross resistance”, the IC50 came to 1.2 µg/mL (≈ 5.85 µM) and the “Fold Resistance of IC50 R/IC50 's” value is 1.2. For the same molecule, in the assay on 8226/S myeloma cells, the IC50 was 1 µg/mL (≈ 4.87 µM) and the “Potency relative to imexon” value is on record as “roughly equal potency to imexon”. In the assay on 8226/S myeloma cells (compared with imexon), the “Enhanced potency: decrease in IC50 against myeloma cell growth” value is more than 40%. Further, in assay [2], the “Fold Resistance of IC50 's (MDR/S)” value is 0.8 and the IC50 turned out to be 1.2 µg/mL (≈ 5.85 µM).
Consider `CC(C)(C)NC(=O)N1CC1C#N` (stereo not shown) [AMP 410, 2-Cyanoaziridine-1-(N-t-butyl)carboxamide], for which the IC50 in assay [1] came out at 69.9 µg/mL (≈ 418 µM); with 8226/I-R myeloma cells it was 36 µg/mL (≈ 215 µM); with 8226/S myeloma cells, 20 µg/mL (≈ 120 µM); in assay [2], 30.7 µg/mL (≈ 184 µM). Moreover, the “Fold Resistance of IC50 R/IC50 's” value in the assay on 8226/I-R myeloma cells stood at 1.8. Besides, in assay [2], the “Fold Resistance of IC50 's (MDR/S)” value was determined as 1.4.
With `CCOC(=O)c1ccc(NC(=O)N2CC2C#N)cc1` (stereo not shown) [AMP 419, 2-Cyanoaziridine-1-[N-(4-ethoxycarbonylphenyl)]carboxamide], the IC50 in assay [1] worked out at 2 µg/mL (≈ 7.71 µM). Also, the “Cross-resistance with imexon” value in the assay on 8226/I-R myeloma cells was “lack of significant (>50% IC50 change) cross-resistance with imexon”. In addition, in assay [2], the “Fold Resistance of IC50 's (MDR/S)” value amounted to 1.2 and the IC50 is 3 µg/mL (≈ 11.6 µM).
